The record followed here is patent US11713338B2, “Cyclic peptides multimers targeting α-4-β-7 integrin” (priority 2016, dated 2023).

Assay [1] concerns the target T1, recombinant integrin α4β7 (Homo sapiens, UniProt P13612+P26010, DEL724-798).
T1 construct: purchased R&D Systems 5397-A3-050
T1 sequence (P13612 34-970 limits assumed): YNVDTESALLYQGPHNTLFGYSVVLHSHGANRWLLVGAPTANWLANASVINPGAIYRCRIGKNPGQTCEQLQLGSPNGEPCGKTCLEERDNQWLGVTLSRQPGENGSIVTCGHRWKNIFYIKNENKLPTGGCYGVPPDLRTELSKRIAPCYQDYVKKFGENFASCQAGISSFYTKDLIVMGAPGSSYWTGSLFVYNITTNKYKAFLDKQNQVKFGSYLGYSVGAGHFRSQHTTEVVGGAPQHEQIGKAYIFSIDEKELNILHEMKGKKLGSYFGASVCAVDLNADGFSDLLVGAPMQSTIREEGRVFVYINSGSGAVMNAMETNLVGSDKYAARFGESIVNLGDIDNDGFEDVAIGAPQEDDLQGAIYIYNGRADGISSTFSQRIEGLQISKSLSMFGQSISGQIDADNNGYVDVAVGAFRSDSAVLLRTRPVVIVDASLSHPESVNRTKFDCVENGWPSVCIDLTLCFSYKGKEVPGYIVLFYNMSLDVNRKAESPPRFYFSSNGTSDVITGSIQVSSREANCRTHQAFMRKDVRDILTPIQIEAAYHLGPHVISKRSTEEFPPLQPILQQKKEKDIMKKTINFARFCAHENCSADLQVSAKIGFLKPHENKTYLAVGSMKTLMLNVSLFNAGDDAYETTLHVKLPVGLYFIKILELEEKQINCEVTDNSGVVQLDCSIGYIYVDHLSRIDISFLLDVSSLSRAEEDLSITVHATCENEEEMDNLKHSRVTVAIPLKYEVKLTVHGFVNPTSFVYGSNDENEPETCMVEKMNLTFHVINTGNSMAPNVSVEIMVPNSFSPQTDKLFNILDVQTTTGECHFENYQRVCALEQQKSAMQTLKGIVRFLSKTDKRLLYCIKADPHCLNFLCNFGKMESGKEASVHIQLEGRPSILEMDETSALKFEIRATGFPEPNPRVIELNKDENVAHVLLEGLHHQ
T1 sequence (P26010 20-723 limits assumed): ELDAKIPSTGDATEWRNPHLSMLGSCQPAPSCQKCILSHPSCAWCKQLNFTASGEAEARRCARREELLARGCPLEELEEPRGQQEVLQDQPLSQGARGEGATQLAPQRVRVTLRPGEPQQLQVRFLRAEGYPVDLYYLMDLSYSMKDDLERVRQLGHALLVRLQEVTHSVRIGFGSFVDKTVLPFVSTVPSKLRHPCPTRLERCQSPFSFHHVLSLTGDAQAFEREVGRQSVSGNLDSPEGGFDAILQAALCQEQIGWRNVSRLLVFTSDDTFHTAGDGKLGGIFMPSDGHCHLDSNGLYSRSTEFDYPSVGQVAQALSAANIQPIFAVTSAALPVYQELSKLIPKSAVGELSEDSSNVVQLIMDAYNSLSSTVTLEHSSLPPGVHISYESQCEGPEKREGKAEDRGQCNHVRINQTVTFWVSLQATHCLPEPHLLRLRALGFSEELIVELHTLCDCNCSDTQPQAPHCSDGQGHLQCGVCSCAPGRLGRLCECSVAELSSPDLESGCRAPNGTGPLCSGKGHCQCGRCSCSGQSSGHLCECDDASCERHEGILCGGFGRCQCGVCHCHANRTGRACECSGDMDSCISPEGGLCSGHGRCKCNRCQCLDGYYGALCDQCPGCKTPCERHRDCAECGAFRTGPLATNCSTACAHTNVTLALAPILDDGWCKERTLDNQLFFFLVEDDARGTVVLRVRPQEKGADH
Description: Integrin α4β7—MAdCAM-1 ELISA competition assay. Particulars: for ELISA Assay Ratio b1/b7: ratio of a4b1 to a4b7 ELISA IC50; for IC50: read-out: ELISA a4b7 Assay IC50. It counts as binding.
Description: Integrin α4β7—MAdCAM-1 ELISA Competition Assay
The plate was incubated at 40C overnight. […] The plate was then incubated for 1 hour at room temperature. The plate was washed three times with wash buffer (50 mM Tris, 100 mM NaCl, 1 mM MnCl2, 0.05% Tween). To each well, 50 μl of compound diluted in assay buffer was added by transfer from a compound serial dilution plate. […] The plate was incubated at room temperature with shaking (300 rpm) for 2 hours to reach binding equilibrium. […] The plate was incubated at room temperature for 1 hour under agitation.

Assay [2] has as its target T2, recombinant integrin α4β1 (Homo sapiens, UniProt P05556+P13612).
T2 construct: purchased R&D Systems 5397-A3-050
Briefly: Integrin α4β1—VCAM-1 competition ELISA. As to conditions: read-out: ELISA a4b1 Assay IC50. It counts as binding. How it is done:
Integrin α4β1—VCAM-1 Competition ELISA
The plate was incubated at 4° C. overnight. […] The plate was then incubated for 1 hour at room temperature. The plate was washed three times with wash buffer (50 mM Tris, 100 mM NaCl, 1 mM MnCl2, 0.05% Tween). To each well, 50 μl of compound diluted in assay buffer was added by transfer from a compound serial dilution plate. […] The plate was incubated at room temperature with shaking (300 rpm) for 2 hours to reach binding equilibrium. Then the plate was washed three times in wash buffer and 100 μl anti-human IgG Fc specific-HRP (Abcam, Ab97225) diluted at 1:2000 in assay buffer was added to each well. The plate was incubated at room temperature for 1 hour under agitation.

T2 sequence (P05556 21-728 limits assumed, one chain of several): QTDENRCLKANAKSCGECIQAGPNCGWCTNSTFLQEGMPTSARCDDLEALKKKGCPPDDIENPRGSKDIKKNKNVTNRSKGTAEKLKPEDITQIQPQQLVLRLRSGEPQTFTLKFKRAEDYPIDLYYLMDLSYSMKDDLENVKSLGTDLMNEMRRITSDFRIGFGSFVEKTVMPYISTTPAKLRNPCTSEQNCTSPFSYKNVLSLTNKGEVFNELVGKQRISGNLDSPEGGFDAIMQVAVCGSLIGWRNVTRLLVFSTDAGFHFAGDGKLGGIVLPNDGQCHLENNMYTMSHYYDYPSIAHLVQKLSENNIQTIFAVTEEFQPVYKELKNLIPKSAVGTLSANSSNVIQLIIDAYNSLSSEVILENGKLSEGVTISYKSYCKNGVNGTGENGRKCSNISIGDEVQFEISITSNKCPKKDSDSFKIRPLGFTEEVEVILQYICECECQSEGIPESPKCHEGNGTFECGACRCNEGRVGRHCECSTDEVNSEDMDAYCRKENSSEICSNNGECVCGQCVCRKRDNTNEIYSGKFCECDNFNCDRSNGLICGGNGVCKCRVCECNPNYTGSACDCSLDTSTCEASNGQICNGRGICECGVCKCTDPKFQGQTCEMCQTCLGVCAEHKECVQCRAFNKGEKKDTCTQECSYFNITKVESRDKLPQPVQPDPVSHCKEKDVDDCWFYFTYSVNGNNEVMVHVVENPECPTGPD

Regarding `CC(C)C[C@@H]1NC(=O)[C@H](C2CCCCC2)NC(=O)[C@@H]2CCCN2[C@H](C(=O)NC(C)(C)C)[C@H](C)NC(=O)[C@H]([C@@H](C)O)NC(=O)[C@H](CC(=O)O)NC1=O` [Compound 91], in assay [1], the “ELISA Assay Ratio b1/b7” value turned out to be 14.5 and the 50% inhibitory concentration (IC50) stood at 0.126 µM. The IC50 in assay [2] worked out at 1.82 µM.

In the case of `CC(C)C[C@@H]1NC(=O)[C@H](Cc2csc(-c3ccccn3)n2)NC(=O)[C@@H]2CCCN2[C@H](C(=O)NC(C)(C)C)[C@H](C)NC(=O)[C@H]([C@@H](C)O)NC(=O)[C@H](CC(=O)O)NC1=O` [Compound 95], in assay [1], the “ELISA Assay Ratio b1/b7” value came to 2.4 and the IC50 was determined as 0.125 µM. Also, in assay [2], the IC50 was found to be 0.303 µM.

Regarding `CC(C)C[C@@H]1NC(=O)[C@H](Cc2csc(-c3ccncc3)n2)NC(=O)[C@@H]2CCCN2[C@H](C(=O)NC(C)(C)C)[C@H](C)NC(=O)[C@H]([C@@H](C)O)NC(=O)[C@H](CC(=O)O)NC1=O` [Compound 97], in assay [1], the “ELISA Assay Ratio b1/b7” value is 2.5 and the IC50 is 0.124 µM. Besides, the IC50 in assay [2] is 0.311 µM.

Regarding `CC(C)C[C@@H]1NC(=O)CN(C)C(=O)[C@H](Cc2cccc(I)c2)NC(=O)[C@@H]2CCCN2[C@H](C(=O)NC(C)(C)C)[C@H](C)NC(=O)[C@H]([C@@H](C)O)NC(=O)[C@H](CC(=O)O)NC1=O` [Compound 106], in assay [1], the “ELISA Assay Ratio b1/b7” value is 18.7 and the IC50 came out at 0.059 µM. Also, the IC50 in assay [2] was found to be 1.11 µM.

For the compound `CC(C)C[C@@H]1NC(=O)CN(C)C(=O)[C@H](Cc2ccc(I)cc2)NC(=O)[C@@H]2CCCN2[C@H](C(=O)NC(C)(C)C)[C@H](C)NC(=O)[C@H]([C@@H](C)O)NC(=O)[C@H](CC(=O)O)NC1=O` [Compound 107], in assay [1], the “ELISA Assay Ratio b1/b7” value was 16.0 and the IC50 came to 0.15 µM. In addition, in assay [2], the half-maximal inhibitory concentration (IC50) stood at 2.39 µM.

For the compound `CC(C)C[C@@H]1NC(=O)[C@@H](CCCCN)NC(=O)[C@H](Cc2ccc(-c3ccccc3)cc2)NC(=O)[C@@H]2CCCN2[C@H](C(=O)NC(C)(C)C)[C@H](C)NC(=O)[C@H]([C@@H](C)O)NC(=O)[C@H](CC(=O)O)NC1=O` [Compound 110], the “ELISA Assay Ratio b1/b7” value in assay [1] is 21.3. Moreover, the IC50 in assay [1] was determined as 0.185 µM; in assay [2], 3.92 µM.

Turning to `CC(C)C[C@@H]1NC(=O)CN(C)C(=O)[C@H](Cc2ccc(-c3ccccc3)cc2)NC(=O)[C@@H]2CCCN2[C@H](C(=O)NC(C)(C)C)[C@H](C)NC(=O)[C@H]([C@@H](C)O)NC(=O)[C@H](CC(=O)O)NC1=O` [Compound 116], in assay [1], the “ELISA Assay Ratio b1/b7” value is 8.4 and the IC50 was determined as 0.166 µM. In addition, the IC50 in assay [2] stood at 1.39 µM.

As to `CC(C)C[C@@H]1NC(=O)CN(C)C(=O)[C@H](Cc2cccc3ccccc23)NC(=O)[C@@H]2CCCN2[C@H](C(=O)NC(C)(C)C)[C@H](C)NC(=O)[C@H]([C@@H](C)O)NC(=O)[C@H](CC(=O)O)NC1=O` [Compound 117], in assay [1], the “ELISA Assay Ratio b1/b7” value is 8.7 and the half-maximal inhibitory concentration (IC50) was determined as 0.158 µM. Besides, the IC50 in assay [2] was 1.38 µM.

`CC(C)C[C@@H]1NC(=O)[C@@H](CCCCN)NC(=O)[C@H](Cc2ccc(O)cc2)NC(=O)[C@@H]2CCCN2[C@H](C(=O)NC(C)(C)C)[C@H](C)NC(=O)[C@H]([C@@H](C)O)N(C)C(=O)[C@H](CC(=O)O)NC1=O` [Compound 121]: the “ELISA Assay Ratio b1/b7” value in assay [1] stood at 11.4. The IC50 in assay [1] amounted to 0.192 µM; in assay [2], 2.19 µM.

As to `COc1ccc(C[C@@H]2NC(=O)[C@@H]3CCCN3[C@H](C(=O)NC(C)(C)C)[C@H](C)NC(=O)[C@H]([C@@H](C)O)NC(=O)[C@H](CC(=O)O)NC(=O)[C@H](CC(C)C)NC(=O)[C@H]3CCCN3C2=O)cc1OC` [Compound 127], in assay [1], the “ELISA Assay Ratio b1/b7” value was 7.8 and the half-inhibitory concentration (IC50) amounted to 0.025 µM. In addition, the half-inhibitory concentration (IC50) in assay [2] stood at 0.196 µM.

Regarding `CC(C)C[C@@H]1NC(=O)[C@H]2CCCCN2C(=O)[C@H](Cc2cscn2)NC(=O)[C@@H]2CCCN2[C@H](C(=O)NC(C)(C)C)[C@H](C)NC(=O)[C@H]([C@@H](C)O)NC(=O)[C@H](CC(=O)O)NC1=O` [Compound 131], in assay [1], the “ELISA Assay Ratio b1/b7” value was determined as 3.1 and the IC50 worked out at 0.026 µM. Moreover, in assay [2], the IC50 came out at 0.08 µM.
